Test results: patent publication EP0427799B1, “METHOD AND COMPOUNDS FOR AICA RIBOSIDE DELIVERY AND FOR LOWERING BLOOD GLUCOSE” (GENSIA, INC., priority 1989, dated 1990)

Experiments:
serum glucose = experiment: Plasma glucose levels in humans after intravenous infusion; format: in vivo
Protocol: Healthy male volunteers were given a 30-minute intravenous infusion of AICA riboside at doses of 25 mg/kg, 50 mg/kg or 100 mg/kg.
Plasma glucose levels were monitored over a four hour period during and following the 30 minute infusion. Plasma glucose was measured by clinical chemistry autoanalyzer. The onset of the serum glucose lowering effect was evident by the end of the AICA riboside infusion period and plasma glucose reached a nadir approximately 30 minutes after the AICA riboside infusion was stopped. Recovery to euglycemic levels was complete by about three hours.

plasma glucose [1] = experiment: Plasma glucose in streptozocin-hyperglycemic rats; format: in vivo; details: rats made hyperglycemic with 50 mg/Kg streptozocin I.V.; doses as low as 100 mg/Kg I.P.
Protocol: (§1) This hypoglycemic effect may contribute to the anti-ischemic properties of the molecule. Ribose is known to lower blood glucose in several animal species, including man, in relatively high doses (on the order of about 1000 mg/kg) by an unknown mechanism, possibly by inhibition of phosphoglucomutase. Accordingly, in theory, AICA riboside could cause hypoglycemia at extremely high doses ([…]) due to its ability to deliver ribose phosphate to cells. Other means of increasing intracellular ribose such as treatment with ribose itself or other nucleosides and prodrugs and analogs of them which can be metabolized to yield ribose-1-phosphate (which is converted ribose-5-phosphate) or ribose-5-phosphate may also lower blood sugar. […] At higher doses of AICA riboside, hypoglycemic seizures and death were induced in rabbits and mice. We have found rats to also be sensitive to the hypoglycemic effects of AICA riboside. Initial studies were performed using non-fasted rats (Sprague Dawley) and mice (Swiss-Webster). […] In non-fasted mice the decrease of glucose levels at this dose was greater, On the order of 30-50%. In both cases the hypoglycemia was statistically significant at the p <.01 level. […] In fasted mice, AICA riboside is potent in lowering blood glucose. (See e.g., Figure 6). In fasted mice AICA riboside may cause seizures at doses of 500 mg/Kg and above. […]

plasma glucose [2] = experiment: Plasma glucose levels in non-fasted rats; format: in vivo, rats (Sprague Dawley); details: 750 mg/Kg, 1 hour after administration
Protocol: as §1

plasma glucose [3] = experiment: Plasma glucose levels in non-fasted and fasted mice; format: in vivo, mice (Swiss-Webster); details: for reduced glucose levels: fasted mice (16 hours)
Protocol: Ribose is known to lower blood glucose in several animal species, including man, in relatively high doses (on the order of about 1000 mg/kg) by an unknown mechanism, possibly by inhibition of phosphoglucomutase. […] Initial studies were performed using non-fasted rats (Sprague Dawley) and mice (Swiss-Webster).
Male mice (Swiss-Webster) were injected IP with the indicated treatment. […] Ribose and AICA riboside were formulated in saline. Glucose levels were measured on plasma (heparinized blood centrifuged at 10,000 X g for ten minutes). Glucose levels were measured one hour after AICA riboside administration.

insulin = experiment: Blood insulin levels in rats; format: in vivo; details: high doses, early time points
From the text: This leads to investigation of the mechanism of AICA riboside induced hypoglycemia. […] This adenosine induced hyperglycemia is reversed by adenosine receptor antagonists (theophylline and sulphophenyltheophylline). Additionally, the AICA riboside-induced hypoglycemia is not blocked by theophylline. It is therefore concluded that the AICA riboside effect on plasma glucose is not mediated by adenosine. […] (See Figure 13).

triglycerides = experiment: Plasma triglyceride levels in diabetic rats, chronic treatment; format: in vivo; details: streptozotocin-induced diabetes in rats
Protocol: Rats were made diabetic by treatment with streptozocin (50 mg/kg IV) and then treated with either saline or AICA riboside (500 mg/kg, twice a day) for 22 days. Plasma triglyceride levels were analyzed 18 hours after the last injection of AICA riboside using the Sigma Procedure #334 Assay Kit (coupled assay employing lipase, glycerokinase, pyruvate kinase and lactate dehydrogenase) which measures decreases in OD₃₄₀ over time (NADH disappearance).

[4] = healthy male volunteers, 30-minute intravenous infusion

NC(=O)c1ncn([C@@H]2O[C@H](CO)[C@@H](O)[C@H]2O)c1N [AICA riboside, 1-β-D-ribofuranosyl-5-aminoimidazole-4-carboxamide]
time of plasma glucose nadir after infusion was stopped (serum glucose; [4]): approximately 30 minutes
time to recovery to euglycemic levels (serum glucose; [4]): about three
effect on serum glucose (serum glucose; humans, 25 mg/kg intravenously over 30 minutes): significant reductions in serum glucose
effect on plasma glucose (plasma glucose [1]): marked decreases in plasma glucose that approached euglycemic levels
Decreases in plasma glucose levels (plasma glucose [2]): 30-40%
doses that may cause seizures (plasma glucose [3]; fasted mice): ≥ 500 mg/kg
duration of reduced plasma glucose levels (plasma glucose [3]; fasted mice (2 hours), 500 mg/Kg): 2 to 3 h
reduced glucose levels (plasma glucose [3]; 250 mg/Kg): 50%
reduced glucose levels (plasma glucose [3]; 500 and 750 mg/Kg): 60%
decrease of glucose levels (plasma glucose [3]; non-fasted mice, 750 mg/Kg): 30-50%
blood insulin levels (insulin): suppress blood insulin levels
serum triglycerides (triglycerides): lowers serum triglycerides
